Read-outs that look alike come from different tables or passages of the source.

The assay has as its target T1, ALK (Homo sapiens, UniProt Q9UM73).
T1 construct: host or cells: baculovirus expression system
The assay can be described thus: ALK Kinase Assay (ELISA/TRF, PLC-γ substrate). The assay is classed as biochemical. To be noted: read-out: ALK Potency. The procedure: Briefly, each 96-well plate was coated with […] of 10 μg/mL substrate (phospholipase C-γ) in Tris-buffered saline (TBS). […] The reaction was initiated by adding enzyme (30 ng/ml ALK) and was allowed to proceed at 37° C. for 15 minutes. Detection of the phosphorylated product was performed by adding 100 μl/well of Eu—N1 labeled PT66 antibody (Perkin Elmer # AD0041).
Data analysis was performed using ActivityBase (IDBS, Guilford, UK). IC50 values were calculated by plotting percent inhibition versus log10 of the concentration of compound and fitting to the nonlinear regression sigmoidal dose-response (variable slope) equation in XLFit (IDBS, Guilford, UK).
(ELISA stands for enzyme-linked immunosorbent assay.)

Setting [1] is: ALK kinase inhibition, 1 μM ATP.

T1 sequence (Q9UM73 19-1620): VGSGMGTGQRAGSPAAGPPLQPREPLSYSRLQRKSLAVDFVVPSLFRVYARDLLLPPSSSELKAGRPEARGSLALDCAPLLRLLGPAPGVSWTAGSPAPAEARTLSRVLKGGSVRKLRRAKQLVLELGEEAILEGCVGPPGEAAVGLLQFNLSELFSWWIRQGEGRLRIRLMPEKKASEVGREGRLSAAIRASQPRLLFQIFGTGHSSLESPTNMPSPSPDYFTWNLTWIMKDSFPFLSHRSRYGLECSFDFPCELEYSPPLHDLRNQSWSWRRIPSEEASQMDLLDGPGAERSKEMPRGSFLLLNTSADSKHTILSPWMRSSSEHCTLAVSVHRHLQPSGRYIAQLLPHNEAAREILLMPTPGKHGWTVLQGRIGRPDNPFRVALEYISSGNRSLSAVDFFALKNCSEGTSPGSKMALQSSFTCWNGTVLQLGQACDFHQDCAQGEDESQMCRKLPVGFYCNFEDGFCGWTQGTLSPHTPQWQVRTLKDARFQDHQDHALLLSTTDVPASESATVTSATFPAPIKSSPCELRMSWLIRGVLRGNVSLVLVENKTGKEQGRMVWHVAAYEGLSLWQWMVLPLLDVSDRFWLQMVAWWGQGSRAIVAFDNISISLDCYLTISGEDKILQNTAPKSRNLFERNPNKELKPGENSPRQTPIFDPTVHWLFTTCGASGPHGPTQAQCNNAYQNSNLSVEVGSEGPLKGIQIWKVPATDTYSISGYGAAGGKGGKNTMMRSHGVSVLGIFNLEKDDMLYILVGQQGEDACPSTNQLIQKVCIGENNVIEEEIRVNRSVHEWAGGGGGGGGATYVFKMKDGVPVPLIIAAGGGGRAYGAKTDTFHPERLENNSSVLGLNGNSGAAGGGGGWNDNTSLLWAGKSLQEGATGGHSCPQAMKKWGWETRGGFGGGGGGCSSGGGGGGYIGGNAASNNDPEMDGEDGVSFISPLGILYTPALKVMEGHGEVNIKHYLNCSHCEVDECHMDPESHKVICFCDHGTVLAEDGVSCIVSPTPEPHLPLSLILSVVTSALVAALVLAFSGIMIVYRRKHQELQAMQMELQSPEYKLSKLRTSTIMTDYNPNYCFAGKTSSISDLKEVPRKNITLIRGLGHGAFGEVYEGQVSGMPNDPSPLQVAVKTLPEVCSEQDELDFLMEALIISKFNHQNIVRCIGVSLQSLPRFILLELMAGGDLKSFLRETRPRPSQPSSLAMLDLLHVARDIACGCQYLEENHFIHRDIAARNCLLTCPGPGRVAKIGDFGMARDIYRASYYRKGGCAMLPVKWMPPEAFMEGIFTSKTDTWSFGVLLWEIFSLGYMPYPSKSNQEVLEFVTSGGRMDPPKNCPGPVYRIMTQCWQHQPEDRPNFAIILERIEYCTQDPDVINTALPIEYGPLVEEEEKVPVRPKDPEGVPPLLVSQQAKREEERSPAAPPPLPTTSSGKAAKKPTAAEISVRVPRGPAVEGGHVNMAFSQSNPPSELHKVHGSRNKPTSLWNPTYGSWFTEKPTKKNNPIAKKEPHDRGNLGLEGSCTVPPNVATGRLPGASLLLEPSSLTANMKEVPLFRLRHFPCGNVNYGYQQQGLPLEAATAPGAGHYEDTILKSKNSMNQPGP

As for `COc1ccccc1-c1ccc2cnc(Nc3ccc(N4CCN(C)CC4)cc3)nn12` [Example 20, [7-(2-Methoxy-phenyl)-pyrrolo[2,1-f][1,2,4]triazin-2-yl]-[4-(4-methyl-piperazin-1-1)-phenyl]-amine], the IC50 (ALK Kinase Inhibition) is less than 100 nM.
As to `CN1CCN(c2ccc(Nc3ncc4ccc(-c5cccc(S(=O)(=O)NC(C)(C)C)c5)n4n3)cc2)CC1` [Example 23, N-tert-Butyl-3-{2-[4-(4-methyl-piperazin-1-yl)-phenylamino]-pyrrolo[2,1-f][1,2,4]triazin-7-yl}-benzenesulfonamide], the IC50 (ALK Kinase Inhibition) is less than 100 nM.
With `COc1ccc(-c2ccc3cnc(Nc4ccc(N5CCN(C)CC5)cc4)nn23)cn1` [Example 81, [7-(6-Methoxy-pyridin-3-yl)-pyrrolo[2,1-f][1,2,4]triazin-2-yl]-[4-(4-methyl-piperazin-1-yl)-phenyl]-amine], for the setting “ALK Kinase Inhibition”, the IC50 was 100 to 1000 nM.
The same measure, in the same setting: under `COc1ccccc1-c1ccc2cnc(Nc3ccc(N4CCN(C)CC4)c(F)c3)nn12` [Example 90, [3-Fluoro-4-(4-methyl-piperazin-1-yl)-phenyl]-[7-(2-methoxy-phenyl)-pyrrolo[2,1-f][1,2,4]triazin-2-yl]-amine] stands less than 100 nM.
For `CN1CCN(c2ccc(Nc3ncc4ccc(-c5ccccc5N(C)S(C)(=O)=O)n4n3)c(Cl)c2)CC1` [Example 507, N-(2-{2-[2-Chloro-4-(4-methyl-piperazin-1-yl)-phenylamino]-pyrrolo[2,1-f][1,2,4]triazin-7-yl}-phenyl)-N-methyl-methanesulfonamide], the IC50 under setting [1] was less than 100 nM.
The same measure, in the same setting: under `COc1cc(N2CCC(N3CCN(C(C)=O)CC3)CC2)ccc1Nc1ncc2ccc(-c3ccccc3OC)n2n1` [Example 536, 1-[4-(1-{3-Methoxy-4-[7-(2-methoxy-phenyl)-pyrrolo[2,1-f][1,2,4]triazin-2-ylamino]-phenyl}-piperidin-4-yl)-piperazin-1-yl]-ethanone] stands less than 100 nM; under `COc1cc(N2CCC(N3CCNCC3)CC2)ccc1Nc1ncc2ccc(-c3ccccc3OC)n2n1` [Example 537, [7-(2-Methoxy-phenyl)-pyrrolo[2,1-f][1,2,4]triazin-2-yl]-[2-methoxy-4-(4-piperazin-1-yl-piperidin-1-yl)-phenyl]-amine], less than 100 nM.
The same measure, in the same setting: for `CS(=O)(=O)N1Cc2cccc(-c3ccc4cnc(Nc5ccc(C6CCN(CC(N)=O)CC6)cc5)nn34)c2C1` [Example 579, 2-(4-{4-[7-(2-Methanesulfonyl-2,3-dihydro-1H-isoindol-4-yl)-pyrrolo[2,1-f][1,2,4]triazin-2-ylamino]-phenyl}-piperidin-1-yl)-acetamide] the value was 1000 to 10000 nM; for `CN1CCN(c2ccc(Nc3ncc4ccc(-c5ccccc5N(C)S(C)(=O)=O)n4n3)cc2)CC1` [Example 627, N-Methyl-N-(2-{2-[4-(4-methyl-piperazin-1-yl)phenylamino]pyrrolo[2,1-f][1,2,4]triazin-7-yl}phenyl)methanesulfonamide], less than 100 nM.
Still for that read-out and setting: under `COc1cc(N2CCN(C[C@@H](O)CO)CC2)ccc1Nc1ncc2ccc(-c3ccccc3OC)n2n1` [Example 758, (R)-3-(4-{3-Methoxy-4-[7-(2-methoxy-phenyl)-pyrrolo[2,1-f][1,2,4]triazin-2-ylamino]-phenyl}-piperazin-1-yl)-propane-1,2-diol] stands less than 100 nM; under `COc1cc(N2CCN(C[C@H](O)CO)CC2)ccc1Nc1ncc2ccc(-c3cc(Cl)ccc3OC)n2n1` [Example 759, (S)-3-(4-{4-[7-(5-Chloro-2-methoxy-phenyl)-pyrrolo[2,1-f][1,2,4]triazin-2-ylamino]-3-methoxy-phenyl}-piperazin-1-yl)-propane-1,2-diol], less than 100 nM; under `COc1cc(N2CCN(C[C@H](O)CO)CC2)ccc1Nc1ncc2ccc(-c3ccccc3OC)n2n1` [Example 760, (S)-3-(4-{3-Methoxy-4-[7-(2-methoxy-phenyl)-pyrrolo[2,1-f][1,2,4]triazin-2-ylamino]-phenyl}-piperazin-1-yl)-propane-1,2-diol], less than 100 nM.
Take `COc1cc(N2CCCN(C[C@H](O)CO)CC2)ccc1Nc1ncc2ccc(-c3ccccc3OC)n2n1` [Example 767, (S)-3-(4-{3-Methoxy-4-[7-(2-methoxy-phenyl)-pyrrolo[2,1-f][1,2,4]triazin-2-ylamino]-phenyl}-[1,4]diazepan-1-yl)-propane-1,2-diol]: under setting [1], the IC50 was less than 100 nM.
On the same count and under the same terms, for `COc1ccc(C2CCN(C)CC2)cc1Nc1ncc2ccc(-c3ccccc3OC)n2n1` [Example 770, [2-Methoxy-5-(1-methyl-piperidin-4-yl)-phenyl]-[7-(2-methoxy-phenyl)-pyrrolo[2,1-f][1,2,4]triazin-2-yl]-amine] the value was less than 100 nM; for `COc1cc2c(cc1Nc1ncc3ccc(-c4ccccc4OC)n3n1)CCCC(N1CCOCC1)C2` (stereo not shown) [Example 992, (3-Methoxy-6-morpholin-4-yl-6,7,8,9-tetrahydro-5H-benzocyclohepten-2-yl)-[7-(2-methoxy-phenyl)-pyrrolo[2,1-f][1,2,4]triazin-2-yl]-amine], less than 100 nM.
Still for that read-out and setting: for `Cc1cc2cnc(Nc3ccc(N4CCN(C)CC4)cc3)nn2c1-c1cccc(CCC#N)c1` [Example 1160, 3-(3-{6-Methyl-2-[4-(4-methyl-piperazin-1-yl)-phenylamino]-pyrrolo[2,1-f][1,2,4]triazin-7-yl}-phenyl)-propionitrile] the value was less than 100 nM.
Take `Cc1cc(-c2ccccc2N(C)S(C)(=O)=O)n2nc(Nc3ccc(C4CCN(CC(N)=O)CC4)cc3)ncc12` [Example 1261, 2-[4-(4-{7-[2-(Methanesulfonyl-methyl-amino)-phenyl]-5-methyl-pyrrolo[2,1-f][1,2,4]triazin-2-ylamino}-phenyl)-piperidin-1-yl]-acetamide]: the IC50 under setting [1] is less than 100 nM.
In the case of `CN1CCN(c2ccc(Nc3ncc4ccc(-c5cccc(S(=O)(=O)NC(C)(C)C)c5)n4n3)cc2Cl)CC1` [Example 1411, N-tert-Butyl-3-{2-[3-chloro-4-(4-methyl-piperazin-1-yl)-phenylamino]-pyrrolo[2,1-f][1,2,4]triazin-7-yl}-benzenesulfonamide], the IC50 (ALK Kinase Inhibition) was less than 100 nM.
Take `C[C@H](O)CN1CCN(c2ccc(Nc3ncc4ccc(-c5cccc(S(=O)(=O)NC(C)(C)C)c5)n4n3)cc2F)CC1` [Example 1412, N-tert-Butyl-3-(2-{3-fluoro-4-[4-((S)-2-hydroxy-propyl)-piperazin-1-yl]-phenylamino}-pyrrolo[2,1-f][1,2,4]triazin-7-yl)-benzenesulfonamide]: the IC50 (ALK Kinase Inhibition) is less than 100 nM.
In the case of `COc1ccccc1-c1ccc2cnc(Nc3ccc(N4CCN(C[C@H](C)O)CC4)c(F)c3)nn12` [Example 1417, (S)-1-(4-{2-Fluoro-4-[7-(2-methoxy-phenyl)-pyrrolo[2,1-f][1,2,4]triazin-2-ylamino]-phenyl}-piperazin-1-yl)-propan-2-ol], the IC50 (ALK Kinase Inhibition) is less than 100 nM.
Take `COc1ccccc1-c1ccc2cnc(Nc3ccc(N4CCN(C)CC4)c(Cl)c3)nn12` [Example 1418, [3-Chloro-4-(4-methyl-piperazin-1-yl)-phenyl]-[7-(2-methoxy-phenyl)-pyrrolo[2,1-f][1,2,4]triazin-2-yl]-amine]: where the note is “ALK Kinase Inhibition”, the IC50 is less than 100 nM.
Still for that read-out and setting: for `COc1ccc(-c2ccc3cnc(Nc4ccc(N5CCN(C)CC5)c(Cl)c4)nn23)cn1` [Example 1419, [3-Chloro-4-(4-methyl-piperazin-1-yl)-phenyl]-[7-(6-methoxy-pyridin-3-yl)-pyrrolo[2,1-f][1,2,4]triazin-2-yl]-amine] the value was 100 to 1000 nM; for `CN1CCN(c2ccc(Nc3ncc4ccc(-c5ccccc5N(C)S(C)(=O)=O)n4n3)cc2F)CC1` [Example 1421, N-(2-{2-[3-Fluoro-4-(4-methyl-piperazin-1-yl)-phenylamino]-pyrrolo[2,1-f][1,2,4]triazin-7-yl}-phenyl)-N-methyl-methanesulfonamide], less than 100 nM; for `C[C@H](O)CN1CCN(c2ccc(Nc3ncc4ccc(-c5ccccc5N(C)S(C)(=O)=O)n4n3)cc2F)CC1` [Example 1423, N-[2-(2-{3-Fluoro-4-[4-((S)-2-hydroxy-propyl)-piperazin-1-yl]-phenylamino}-pyrrolo[2,1-f][1,2,4]triazin-7-yl)-phenyl]-N-methyl-methanesulfonamide], less than 100 nM.
Still for that read-out and setting: for `CN1CCN(c2ccc(Nc3ncc4ccc(-c5ccccc5N(C)S(C)(=O)=O)n4n3)cc2Cl)CC1` [Example 1424, N-(2-{2-[3-Chloro-4-(4-methyl-piperazin-1-yl)-phenylamino]-pyrrolo[2,1-f][1,2,4]triazin-7-yl}-phenyl)-N-methyl-methanesulfonamide] the value was less than 100 nM; for `COc1cc(N2CCCC(N3CCN(CCO)CC3)C2)ccc1Nc1ncc2ccc(-c3ccccc3OC)n2n1` (stereo not shown) [Example 1443, 2-[4-(1-{3-Methoxy-4-[7-(2-methoxy-phenyl)-pyrrolo[2,1-f][1,2,4]triazin-2-ylamino]-phenyl}-piperidin-3-yl)-piperazin-1-yl]-ethanol], less than 100 nM.
The same measure, in the same setting: under `COc1cc(N2CCC(N3CCOCC3)CC2)ccc1Nc1ncc2ccc(-c3cccc(NS(C)(=O)=O)c3)n2n1` [Example 1446, N-(3-{2-[2-Methoxy-4-(4-morpholin-4-yl-piperidin-1-yl)-phenylamino]-pyrrolo[2,1-f][1,2,4]triazin-7-yl}-phenyl)-methanesulfonamide] stands less than 100 nM; under `CCOc1ccccc1-c1ccc2cnc(Nc3ccc(N4CCC(N5CCOCC5)CC4)cc3OC)nn12` [Example 1447, [7-(2-Ethoxy-phenyl)-pyrrolo[2,1-f][1,2,4]triazin-2-yl]-[2-methoxy-4-(4-morpholin-4-yl-piperidin-1-yl)-phenyl]-amine], less than 100 nM.

The values above are taken from US8471005B2 (Cephalon, Inc., priority 2008, dated 2013).
